Activity, MTC and EC50 data for 14 compounds are collected here from ChEMBL document CHEMBL1146296, “Influence of an additional 2-amino substituent of the 1-aminoethyl pharmacophore group on the potency of rimantadine against influenza virus A” (Bioorg Med Chem Lett, 2007).

The source made the active and inactive calls. The rule behind the calls is not given here.

One data set relates to Influenza A virus. Nature of the data set: Antiviral activity against influenza A virus (H3N2) assessed as inhibition of viral replication. It counts as functional, organism-based.
Settings: not given
For `C1CNC(C23CC4CC(CC(C4)C2)C3)CN1.O=C(O)/C=C\C(=O)O` (stereo not drawn), the result was Active.
The same measure, in the same setting: for `CNC(CN)C12CC3CC(CC(C3)C1)C2.O=C(O)/C=C\C(=O)O` (stereo not drawn) the value was “Active”; for `O=C1NCC(C23CC4CC(CC(C4)C2)C3)N1` (stereo not drawn), “Active”; for `NCC(N)C12CC3CC(CC(C3)C1)C2.O=C(O)/C=C\C(=O)O` (stereo not drawn), “Active”.
Same read-out and setting: for `O=C1CNC(C23CC4CC(CC(C4)C2)C3)CN1` (stereo not drawn) the value was “Active”.

For a further data set, the system named is Influenza B virus. Nature of the data set: Antiviral activity against influenza B virus.
Settings: not given
Type of data set: functional, organism-based.
Turning to `C1CNC(C23CC4CC(CC(C4)C2)C3)CN1.O=C(O)/C=C\C(=O)O` (stereo not drawn), the outcome was inactive.
On to `CNC(CN)C12CC3CC(CC(C3)C1)C2.O=C(O)/C=C\C(=O)O` (stereo not drawn), for which the outcome was inactive.
On the same count and under the same terms, for `CN1CCNCC1C12CC3CC(CC(C3)C1)C2.O=C(O)/C=C\C(=O)O` (stereo not drawn) the value was “inactive”; for `O=C1NCC(C23CC4CC(CC(C4)C2)C3)N1` (stereo not drawn), “inactive”.
For the compound `CN1C(=O)NCC1C12CC3CC(CC(C3)C1)C2` (stereo not drawn), the outcome was inactive.
The same measure, in the same setting: for `NCC(N)C12CC3CC(CC(C3)C1)C2.O=C(O)/C=C\C(=O)O` (stereo not drawn) the value was “inactive”.
In the case of `CN1CCN(C)C(C23CC4CC(CC(C4)C2)C3)C1.O=C(O)/C=C\C(=O)O` (stereo not drawn), the result was inactive.
As to `O=C1CNC(C23CC4CC(CC(C4)C2)C3)CN1` (stereo not drawn), the result was inactive.
Still for that read-out and setting: for `CN1CC(C23CC4CC(CC(C4)C2)C3)N(C)C1=O` (stereo not drawn) the value was “inactive”; for `CN1CC(=O)NCC1C12CC3CC(CC(C3)C1)C2` (stereo not drawn), “inactive”.

Another data set has as its system MDCK. Nature of the data set: Cytotoxicity against MDCK cells. Type of data set: cell-based, Canis lupus familiaris. Conditions: dog.
`C1CNC(C23CC4CC(CC(C4)C2)C3)CN1.O=C(O)/C=C\C(=O)O` (stereo not drawn): the MTC is more than 553 µM.
On the same count and under the same terms, for `CNC(CN)C12CC3CC(CC(C3)C1)C2.O=C(O)/C=C\C(=O)O` (stereo not drawn) the value was more than 568 µM; for `CN1CCNCC1C12CC3CC(CC(C3)C1)C2.O=C(O)/C=C\C(=O)O` (stereo not drawn), more than 535 µM.
With `Cl.NC12CC3CC(CC(C3)C1)C2` [AMANTADINE HYDROCHLORIDE], the MTC is more than 1333 µM.
On the same count and under the same terms, for `O=C1NCC(C23CC4CC(CC(C4)C2)C3)N1` (stereo not drawn) the value was more than 1135 µM; for `CN1C(=O)NCC1C12CC3CC(CC(C3)C1)C2` (stereo not drawn), more than 1067 µM; for `NCC(N)C12CC3CC(CC(C3)C1)C2.O=C(O)/C=C\C(=O)O` (stereo not drawn), more than 586 µM.
`CN1CCN(C)C(C23CC4CC(CC(C4)C2)C3)C1.O=C(O)/C=C\C(=O)O` (stereo not drawn) gave an MTC of more than 520 µM.
Take `CC(N)C12CC3CC(CC(C3)C1)C2.Cl` (stereo not drawn) [RIMANTADINE HYDROCHLORIDE]: the MTC is more than 1160 µM.
The same measure, in the same setting: for `O=C1CNC(C23CC4CC(CC(C4)C2)C3)CN1` (stereo not drawn) the value was more than 1067 µM.
Same read-out and setting: for `CN1CC(C23CC4CC(CC(C4)C2)C3)N(C)C1=O` (stereo not drawn) the value was 1007 µM; for `C1CCC(C23CC4CC(CC(C4)C2)C3)NC1.Cl` (stereo not drawn), 978 µM; for `C1CNC(C23CC4CC(CC(C4)C2)C3)C1.Cl` (stereo not drawn), 1035 µM.
Take `CN1CC(=O)NCC1C12CC3CC(CC(C3)C1)C2` (stereo not drawn): the MTC was more than 1007 µM.

A further data set has as its system Influenza A virus. Nature of the data set: Antiviral activity against influenza A virus (H3N2)-induced cytopathogenicity in MDCK cells by MTS method. It counts as functional, organism-based.
Settings: not given
Broadly, the EC50 is the concentration that produces a half-maximal response. A high value points to weaker potency. For the compound `C1CNC(C23CC4CC(CC(C4)C2)C3)CN1.O=C(O)/C=C\C(=O)O` (stereo not drawn), the EC50 was 24.1 µM.
`CNC(CN)C12CC3CC(CC(C3)C1)C2.O=C(O)/C=C\C(=O)O` (stereo not drawn) yielded a half-maximal effective concentration (EC50) of 56.8 µM.
As for `CN1CCNCC1C12CC3CC(CC(C3)C1)C2.O=C(O)/C=C\C(=O)O` (stereo not drawn), the response was half-maximal at 197 µM (EC50).
The same measure, in the same setting: for `Cl.NC12CC3CC(CC(C3)C1)C2` [AMANTADINE HYDROCHLORIDE] the value was 49.1 µM; for `O=C1NCC(C23CC4CC(CC(C4)C2)C3)N1` (stereo not drawn), 72.6 µM; for `CN1C(=O)NCC1C12CC3CC(CC(C3)C1)C2` (stereo not drawn), 269 µM.
Still for that read-out and setting: for `NCC(N)C12CC3CC(CC(C3)C1)C2.O=C(O)/C=C\C(=O)O` (stereo not drawn) the value was 18.3 µM.
In turn, `CN1CCN(C)C(C23CC4CC(CC(C4)C2)C3)C1.O=C(O)/C=C\C(=O)O` (stereo not drawn) registered a 50% effective concentration (EC50) of 351 µM.
Same read-out and setting: for `CC(N)C12CC3CC(CC(C3)C1)C2.Cl` (stereo not drawn) [RIMANTADINE HYDROCHLORIDE] the value was 19.1 µM; for `O=C1CNC(C23CC4CC(CC(C4)C2)C3)CN1` (stereo not drawn), 91.8 µM; for `CN1CC(C23CC4CC(CC(C4)C2)C3)N(C)C1=O` (stereo not drawn), 107 µM.
Still for that read-out and setting: for `C1CCC(C23CC4CC(CC(C4)C2)C3)NC1.Cl` (stereo not drawn) the value was 70.5 µM; for `C1CNC(C23CC4CC(CC(C4)C2)C3)C1.Cl` (stereo not drawn), 51.3 µM.
On the same count and under the same terms, for `CN1CC(=O)NCC1C12CC3CC(CC(C3)C1)C2` (stereo not drawn) the value was 604 µM.
